System: Xenopus laevis embryos
Test: Embryonic morphology after PMA treatment
Type: in vivo
Description: Embryos were sorted for successful cleavage to 2 cells (1.5 hours after fertilization), split into groups for subsequent treatment (triplicate treatments per each experimental group) and visually monitored for normal embryonic morphology. Rates of abnormal morphology were recorded for each group. Embryos at stage 8 were obtained after incubation of the fertilized embryos at 23° C. for 5 hours. PMA (100 ng/ml) or DMSO (0.01%, solvent used to dissolve PMA) was added to the embryos 2 hours after fertilization. […] Embryos at stage 15 were obtained after incubation of the fertilized embryos at 18° C. for 30 hours (the condition produced stage 15 embryos identical to embryos obtained at 23° C. for 10 hours). PMA or DMSO was added to the embryos 21 hours after fertilization.

CCCCCCCCCCCCCC(=O)O[C@@H]1[C@@H](C)[C@@]2(O)[C@@H](C=C(CO)C[C@]3(O)C(=O)C(C)=C[C@@H]23)[C@@H]2C(C)(C)[C@]12OC(C)=O [PMA, phorbol 12-myristate 12-acetate]
embryo morphology / developmental stage reached (100 ng/ml added 2 hours after fertilization, 23° C. for 5 hours, untreated progressed to blastula): remained in a pre-blastula stage
embryo morphology / developmental stage reached (added 21 hours after fertilization, 18° C. for 30 hours, untreated showed typical neurula): in a pre-neurula stage

Source: US20080145858A1, “DETECTION AND IDENTIFICATION OF TOXICANTS BY MEASUREMENT OF GENE […]” (priority 2003, published 2008)
